≈ marks a conversion by molar mass, not a printed value.
What was measured:
MSSA ATCC 29213 = assay: Resistant strains assay (broth microdilution MIC); format: cell-based; settings: Staphylococcus aureus, read-out: MIC, Column B
Procedure: (§1) Compounds of the present invention were tested for activity against susceptible and resistant bacterial strains in vitro, and activity was compared to known anti-bacterial agents. Testing protocols followed NCCLS methodology for broth microdilution assays. MIC values in μg/mL are presented in Table 3 for the following strains: Column A: MSSA ATCC13709 (Smith); Column B: MSSA ATCC 29213; Column C: MRSA OC3726 (COL); Column D: MRSA OC2878.

MSSA ATCC13709 (Smith) = assay: Resistant strains assay (broth microdilution MIC); format: cell-based; settings: Staphylococcus aureus
Procedure: as §1

CipR MRSA OC3946 = assay: Resistant strains assay (broth microdilution MIC); format: cell-based; settings: Staphylococcus aureus; CipR MRSA OC3946; read-out: MIC, Column E
Procedure: as §1
MIC values in μg/mL are presented in Table 4 for the following strains: Column E: CipR MRSA OC3946; Column F: CipR MRSA OC4159; Column G: CipR MRSA OC4222; Column H: CipR MRSA OC5273.

[1] = system: E. coli KL-16 (GSC strain 4245); assay: In vitro antibacterial activity (MIC assay), broth microdilution; format: cell-based; settings: Escherichia coli
Procedure, shortened: (§2)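 Broth microdilution per NCCLS M7-A5: 11-point 2-fold compound dilutions from DMSO stocks, inoculum about 5×10^5 CFU/mL, incubation 35° C for 16–24 h. MIC scored visually against no-compound growth controls, in μg/mL.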

S. aureus ATCC13709 = assay: as above; format: cell-based; settings: Staphylococcus aureus, ATCC13709; read-out: S. aureus ATCC13709 MIC
Procedure, shortened: as §2

S. pneumoniae ATCC49619 = assay: as above; format: cell-based; settings: Streptococcus pneumoniae, ATCC49619; read-out: S. pneumoniae ATCC49619 MIC
Procedure, shortened: as §2

CipR MRSA OC4222 = assay: Resistant strains assay (broth microdilution MIC); format: cell-based; settings: Staphylococcus aureus; CipR MRSA OC4222; read-out: MIC, Column G
Description: (§3) Testing protocols followed NCCLS methodology for broth microdilution assays.

MRSA OC3726 (COL) = assay: Resistant strains assay (broth microdilution MIC); format: cell-based; settings: Staphylococcus aureus; MRSA OC3726 (COL); read-out: MIC, Column C
Description: as §3

MRSA OC2878 = assay: Resistant strains assay (broth microdilution MIC); format: cell-based; settings: Staphylococcus aureus; MRSA OC2878; read-out: MIC, Column D
Description: as §3

CipR MRSA OC5273 = assay: Resistant strains assay (broth microdilution MIC); format: cell-based; settings: Staphylococcus aureus, read-out: MIC, Column H
Description: as §3

CipR MRSA OC4159 = assay: Resistant strains assay (broth microdilution MIC); format: cell-based; settings: Staphylococcus aureus, read-out: MIC, Column F
Description: as §3

E. coli DNA gyrase = biological target: T1, E. coli DNA gyrase (Escherichia coli, UniProt P0AES4+P0AES6); assay: DNA gyrase inhibition assay (supercoiling); format: biochemical; settings: E. coli DNA gyrase supercoiling, visual inspection of gels; read-out: DNA Gyrase IC50 (converted)
T1 construct: purchased John Innes Enterprises Ltd. (John Innes Centre, UK)
Procedure, shortened: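 Relaxed pBR322 (250 ng) was supercoiled by 0.2 unit gyrase in Tris-HCl pH 7.5, KCl, MgCl2, DTT, spermidine, 1 mM ATP, glycerol, albumin, 0.5% DMSO final, 30 min at 37° C. Products were resolved on 1.0% agarose gels with ethidium bromide staining.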

E. coli topoisomerase IV = biological target: T2, E. coli topoisomerase IV (Escherichia coli, UniProt P0AFI2+P20083); assay: Topoisomerase IV inhibition assay (relaxation); format: biochemical; settings: E. coli topoisomerase IV relaxation, visual inspection of gels; read-out: Topoisomerase IV IC50 (converted)
T2 construct: purchased John Innes Enterprises Ltd. (John Innes Centre, UK)
Procedure: Inhibition of the relaxation activity of E. coli topoisomerase IV was determined using enzyme, buffers and substrates received from John Innes Enterprises Ltd. (John Innes Centre, UK). The reactions were performed according to the manufacturer's directions, with the following modifications.
DNA relaxation reactions were carried out in a total reaction volume of 20 μL, containing 300 ng of supercoiled pBR322, 40 mM HEPES-KOH (pH 7.6), 100 mM potassium glutamate, 10 mM Mg(OAc)2, 10 mM DTT, 4 μg/mL tRNA, 2 mM ATP, and 50 μg/mL BSA. Compounds, diluted in 10% DMSO, were added to the reaction mixture to reach a final concentration of 0.5% DMSO. Enzyme was diluted to 0.45 unit/μL in a solution of 40 mM HEPES-KOH (pH 7.6), 150 mM potassium glutamate, 1 mM DTT, 1 mM EDTA, and 40% glycerol. Diluted enzyme (0.9 unit) was added to each reaction.
The reactions were incubated at 37° C. for 45 min. The reactions were then cooled to 0° C. followed by addition of 3 μL of 40% glycerol, 100 mM Tris-HCl (pH 7.5), 50 mM EDTA, 0.5% SDS and 0.1% bromophenol blue. Samples were separated on 1.0% agarose gels. Gels were stained with Ethidium bromide and photographed with a Stratagene Eagle Eye II.

T2 sequence (P0AFI2 whole entry): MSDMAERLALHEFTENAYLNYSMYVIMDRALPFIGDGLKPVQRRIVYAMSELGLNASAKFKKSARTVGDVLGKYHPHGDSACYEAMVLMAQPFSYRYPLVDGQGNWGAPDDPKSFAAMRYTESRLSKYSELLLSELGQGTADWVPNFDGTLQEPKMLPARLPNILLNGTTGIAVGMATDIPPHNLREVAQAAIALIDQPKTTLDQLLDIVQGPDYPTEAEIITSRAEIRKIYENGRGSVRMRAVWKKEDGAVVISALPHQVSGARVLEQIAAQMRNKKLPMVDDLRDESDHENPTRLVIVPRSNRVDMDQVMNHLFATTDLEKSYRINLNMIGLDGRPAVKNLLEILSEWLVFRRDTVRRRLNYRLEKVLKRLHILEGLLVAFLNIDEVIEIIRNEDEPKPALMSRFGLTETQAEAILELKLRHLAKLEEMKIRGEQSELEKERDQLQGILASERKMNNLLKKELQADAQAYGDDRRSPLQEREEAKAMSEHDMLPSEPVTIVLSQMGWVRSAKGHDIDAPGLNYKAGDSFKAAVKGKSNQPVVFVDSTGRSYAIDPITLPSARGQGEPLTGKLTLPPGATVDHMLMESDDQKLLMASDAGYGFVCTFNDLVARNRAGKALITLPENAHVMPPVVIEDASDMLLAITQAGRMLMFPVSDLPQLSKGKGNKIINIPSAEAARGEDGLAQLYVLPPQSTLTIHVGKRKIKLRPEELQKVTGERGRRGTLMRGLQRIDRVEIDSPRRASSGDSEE
T2 sequence (P20083 whole entry): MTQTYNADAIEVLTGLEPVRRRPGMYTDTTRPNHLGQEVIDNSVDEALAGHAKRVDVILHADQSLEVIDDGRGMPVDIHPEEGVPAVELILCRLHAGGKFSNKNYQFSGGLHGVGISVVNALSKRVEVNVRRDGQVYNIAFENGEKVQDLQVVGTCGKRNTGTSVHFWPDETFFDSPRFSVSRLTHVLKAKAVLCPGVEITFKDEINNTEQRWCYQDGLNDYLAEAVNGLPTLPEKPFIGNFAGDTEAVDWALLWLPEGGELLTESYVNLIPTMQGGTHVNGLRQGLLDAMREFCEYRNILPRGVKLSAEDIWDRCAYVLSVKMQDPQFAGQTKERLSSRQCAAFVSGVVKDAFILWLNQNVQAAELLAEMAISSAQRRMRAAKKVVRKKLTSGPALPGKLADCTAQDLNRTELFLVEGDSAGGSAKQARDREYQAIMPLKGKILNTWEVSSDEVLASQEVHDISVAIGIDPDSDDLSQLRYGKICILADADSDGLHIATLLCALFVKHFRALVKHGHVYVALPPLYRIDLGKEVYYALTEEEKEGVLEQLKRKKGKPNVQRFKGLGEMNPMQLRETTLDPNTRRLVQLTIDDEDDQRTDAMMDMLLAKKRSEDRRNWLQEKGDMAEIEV

MIC (MSSA ATCC 29213) [µg/mL]	MIC (MSSA ATCC13709 (Smith)) [µg/mL]	MIC (CipR MRSA OC3946) [µg/mL]	MIC (CipR MRSA OC4222) [µg/mL]	MIC (MRSA OC3726 (COL)) [µg/mL]	MIC (MRSA OC2878) [µg/mL]	MIC (CipR MRSA OC5273) [µg/mL]	MIC (CipR MRSA OC4159) [µg/mL]	Compound	MIC [1] [µg/mL]	MIC (S. aureus ATCC13709) [µg/mL]	MIC (S. pneumoniae ATCC49619) [µg/mL]	IC50 (E. coli DNA gyrase) [nM]	IC50 (E. coli topoisomerase IV) [nM]
2 (≈ 4.87 µM)	0.5 (≈ 1.22 µM)	0.5 (≈ 1.22 µM)	0.25 (≈ 0.609 µM)	1 (≈ 2.44 µM)	0.5 (≈ 1.22 µM)	1 (≈ 2.44 µM)	0.5 (≈ 1.22 µM)	COc1ccc2nccc(-n3cc4c(n3)CCC(NC/C=C/c3ccccc3)C4)c2c1 (stereo not drawn) [Example 55, [2-(6-Methoxy-quinolin-4-yl)-4,5,6,7-tetrahydro-2H-indazol-5-yl]-(3-phenyl-allyl)-amine]	64 (≈ 156 µM)	0.5 (≈ 1.22 µM)	1 (≈ 2.44 µM)		
			0.5 (≈ 1 µM)					COc1ccc2nccc(-n3cc4c(n3)CCC(NC(=O)c3cc5c(cc3C)SCC(=O)N5)C4)c2c1 (stereo not drawn) [Example 131, 7-Methyl-3-oxo-3,4-dihydro-2H-benzo[1,4]thiazine-6-carboxylic acid [2-(6-methoxy-quinolin-4-yl)-4,5,6,7-tetrahydro-2H-indazol-5-yl]-amide]	8 (≈ 16 µM)	0.5 (≈ 1 µM)	16 (≈ 32 µM)		
2 (≈ 6.26 µM)	1 (≈ 3.13 µM)	128 (≈ 401 µM)	> 128	2 (≈ 6.26 µM)	1 (≈ 3.13 µM)	> 128	> 128	CCn1cc(C(=O)O)c(=O)c2cc(F)c(N3CCNCC3)cc21 [Norfloxacin, reference compound]					
0.062 (≈ 0.158 µM)	0.062 (≈ 0.158 µM)	4 (≈ 10.2 µM)	8 (≈ 20.4 µM)	0.125 (≈ 0.319 µM)	0.062 (≈ 0.158 µM)	16 (≈ 40.8 µM)	16 (≈ 40.8 µM)	C[C@@H]1CN(c2c(F)c(N)c3c(=O)c(C(=O)O)cn(C4CC4)c3c2F)C[C@H](C)N1 [Sparfloxacin, reference compound]					

Compound	MIC (MSSA ATCC 29213) [µg/mL]	MIC (MSSA ATCC13709 (Smith)) [µg/mL]	MIC (CipR MRSA OC3946) [µg/mL]	MIC (CipR MRSA OC4222) [µg/mL]	MIC (MRSA OC3726 (COL)) [µg/mL]	MIC (MRSA OC2878) [µg/mL]	MIC (CipR MRSA OC5273) [µg/mL]	MIC (CipR MRSA OC4159) [µg/mL]	MIC [1] [µg/mL]	MIC (S. aureus ATCC13709) [µg/mL]	MIC (S. pneumoniae ATCC49619) [µg/mL]	IC50 (E. coli DNA gyrase) [nM]	IC50 (E. coli topoisomerase IV) [nM]
COc1ccc2nccc(-n3cc4c(n3)CCC(NCc3ccc5c(c3)NC(=O)CS5)C4)c2n1 (stereo not drawn) [Example 41, 6-{[2-(6-Methoxy-[1,5]naphthyridin-4-yl)-4,5,6,7-tetrahydro-2H-indazol-5-ylamino]-methyl}-4H-benzo[1,4]thiazin-3-one]	0.25 (≈ 0.529 µM)	0.25 (≈ 0.529 µM)	0.25 (≈ 0.529 µM)	0.25 (≈ 0.529 µM)	1 (≈ 2.12 µM)	0.5 (≈ 1.06 µM)	0.5 (≈ 1.06 µM)	0.25 (≈ 0.529 µM)	2 (≈ 4.23 µM)	0.25 (≈ 0.529 µM)	2 (≈ 4.23 µM)	127	33.9
COc1ccc2nccc(-n3cc4c(n3)CCC(NC(=O)c3c(F)cc5c(c3F)NC(=O)CS5)C4)c2c1 (stereo not drawn) [Example 108, 5,7-Difluoro-3-oxo-3,4-dihydro-2H-benzo[1,4]thiazine-6-carboxylic acid [2-(6-methoxy-quinolin-4-yl)-4,5,6,7-tetrahydro-2H-indazol-5-yl]-amide]				0.06 (≈ 0.115 µM)					8 (≈ 15.3 µM)	0.125 (≈ 0.24 µM)	1 (≈ 1.92 µM)	1920	
COc1ccc2nccc(-n3cc4c(n3)CCC(NC(=O)c3c(F)cc5c(c3F)NC(=O)CS5)C4)c2n1 (stereo not drawn) [Example 109, 5,7-Difluoro-3-oxo-3,4-dihydro-2H-benzo[1,4]thiazine-6-carboxylic acid [2-(6-methoxy-[1,5]naphthyridin-4-yl)-4,5,6,7-tetrahydro-2H-indazol-5-yl]-amide]				0.03 (≈ 0.0574 µM)					> 128	0.125 (≈ 0.239 µM)	4 (≈ 7.65 µM)	1910	
